Data as given in ChEMBL document CHEMBL4422679, “Unexpected equivalent potency of a constrained chromene enantiomeric pair rationalized by co-crystal structures in complex with estrogen receptor alpha” (Bioorg Med Chem Lett, 2019).

Columns and labels:
[1] = Octanol-buffer distribution coefficient, log D of the compound at pH 7.4; format: physicochemical
MCF7 = experiment: Antiproliferative activity against human MCF7 cells after 3 days by CellTiter-Glo luminescent cell viability assay; format: functional, cell-based
Estrogen receptor = biological target: T1, Estrogen receptor (Homo sapiens, UniProt P03372)
T1 sequence (P03372 whole entry): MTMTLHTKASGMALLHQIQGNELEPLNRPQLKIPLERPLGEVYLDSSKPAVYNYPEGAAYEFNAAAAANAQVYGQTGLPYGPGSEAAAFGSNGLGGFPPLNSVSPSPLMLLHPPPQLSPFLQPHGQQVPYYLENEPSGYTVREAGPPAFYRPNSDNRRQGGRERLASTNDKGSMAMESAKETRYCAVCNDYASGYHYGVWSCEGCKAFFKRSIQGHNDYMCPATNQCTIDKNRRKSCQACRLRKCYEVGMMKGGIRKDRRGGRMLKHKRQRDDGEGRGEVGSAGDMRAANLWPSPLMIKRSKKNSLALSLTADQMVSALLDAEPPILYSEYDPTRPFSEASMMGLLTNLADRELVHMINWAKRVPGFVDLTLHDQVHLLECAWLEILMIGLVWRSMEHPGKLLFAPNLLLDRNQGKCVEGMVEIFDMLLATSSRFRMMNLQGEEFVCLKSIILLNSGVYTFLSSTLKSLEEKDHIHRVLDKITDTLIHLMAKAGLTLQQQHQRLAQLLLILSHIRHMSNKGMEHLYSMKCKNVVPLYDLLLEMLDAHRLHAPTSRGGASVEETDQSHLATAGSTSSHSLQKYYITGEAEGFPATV
Description: Induction of ERalpha degradation in human MCF7 cells after 4 hrs by Alexafluor-488 conjugate anti-mouse IgG antibody/Hoechst 33342 staining based immunofluorescence imaging analysis

[2] = Clearance in Sprague-Dawley rat at 1 mg/kg, iv or 1 mg/kg, po; format: ADME, organism-based; details: in vivo
Rattus norvegicus [3] = experiment: In vivo antagonist activity at estrogen receptor in Sprague-Dawley rat assessed as reduction in ethynylestradiol-stimulated increase in uterine wet weight at 60 mg/kg, po administered once daily via gavage for 3 days measured 24 hrs post last dose relative to control; format: functional; parameters: scale not given: the % may be the effect or the level left
[4] = Oral bioavailability in Sprague-Dawley rat at 1 mg/kg; format: ADME, organism-based; details: in vivo
Rattus norvegicus [5] = experiment: In vivo antagonist activity at estrogen receptor in Sprague-Dawley rat assessed as reduction in ethynylestradiol-stimulated increase in uterine wet weight administered once daily via oral gavage for 3 days measured 24 hrs post last dose; format: functional, organism-based
Rattus norvegicus [6] = experiment: In vivo antagonist activity at estrogen receptor in Sprague-Dawley rat assessed as reduction in ethynylestradiol-stimulated increase in uterine wet weight at 0.1 mg/kg, po administered once daily via gavage for 3 days measured 24 hrs post last dose relative to control; format: functional; parameters: scale not given: the % may be the effect or the level left
Rattus norvegicus [7] = experiment: In vivo antagonist activity at estrogen receptor in Sprague-Dawley rat assessed as reduction in ethynylestradiol-stimulated increase in uterine wet weight at 10 mg/kg, po administered once daily via gavage for 3 days measured 24 hrs post last dose relative to control; format: functional; parameters: scale not given: the % may be the effect or the level left

SMILES: Oc1ccc2c(c1)O[C@H](c1ccc(OCCN3CC(CF)C3)cc1)C1=C2CCOc2cc(O)ccc21
- logD [1]: 3.2
- IC50 (MCF7; Homo sapiens, MCF7, 72 h): 0.9 nM

SMILES: Oc1ccc2c(c1)C1=C(c3cc(O)ccc3OCC1)C(c1ccc(OCCN3CC(CF)C3)cc1)O2 (stereo in doubt; 19b)
- IC50 (MCF7; mcf7): 10 nM
- IC50 (Estrogen receptor): 3.2 nM

SMILES: Oc1ccc2c(c1)OCCC1=C2C(c2ccc(OCCN3CC(CF)C3)cc2)Oc2ccc(O)cc21 (stereo in doubt; 17b)
- logD [1]: 2.7
- IC50 (MCF7; Homo sapiens, MCF7, 72 h): 0.6 nM
- clearance [2]: 237 mL/min/kg

SMILES: Oc1ccc2c(c1)OC(c1ccc(OCCN3CCCCC3)cc1)C1=C2CCOc2cc(O)ccc21 (racemic)
- IC50 (MCF7; Homo sapiens, MCF7, 72 h): 1.2 nM
- IC50 (Estrogen receptor): 0.28 nM

SMILES: Oc1ccc2c(c1)OC(c1ccc(OCCN3CC(CF)C3)cc1)C1=C2CCOc2ccc(O)cc21 (stereo in doubt; 18a)
- IC50 (MCF7; mcf7): 5 nM
- IC50 (Estrogen receptor): 0.61 nM

SMILES: CC/C(=C(\c1ccccc1)c1ccc(OCCN(C)C)cc1)c1ccccc1 [TAMOXIFEN]
- Activity (Rattus norvegicus [3]): 36%

SMILES: Oc1ccc2c(c1)O[C@@H](c1ccc(OCCN3CC(CF)C3)cc1)C1=C2CCOc2cc(O)ccc21
- logD [1]: 3
- bioavailability [4]: 3.2%
- IC50 (MCF7; Homo sapiens, MCF7, 72 h): 0.4 nM
- Activity (Rattus norvegicus [5]): Dose-dependent effect
- Activity (Rattus norvegicus [6]): 17%
- Activity (Rattus norvegicus [7]): 87%
- clearance [2]: 57 mL/min/kg

SMILES: Oc1ccc2c(c1)OC(c1ccc(OCCN3CC[C@@H](CF)C3)cc1)C1=C2CCOc2cc(O)ccc21 (some centres not stated)
- IC50 (MCF7; Homo sapiens, MCF7, 72 h): 0.3 nM

SMILES: Oc1ccc2c(c1)OC(c1ccc(OCCN3CC(CF)C3)cc1)C1=C2CCOc2cc(O)ccc21 (racemic)
- IC50 (MCF7; Homo sapiens, MCF7, 72 h): 0.7 nM

SMILES: Oc1ccc2c(c1)C1=C(c3cc(O)ccc3OCC1)C(c1ccc(OCCN3CC(CF)C3)cc1)O2 (stereo in doubt; 19a)
- IC50 (MCF7; mcf7): 0.8 nM
- IC50 (Estrogen receptor): 0.24 nM

SMILES: Oc1ccc2c(c1)OC(c1ccc(OCCN3CC(CF)C3)cc1)C1=C2CCOc2ccc(O)cc21 (stereo in doubt; 18b)
- IC50 (MCF7; mcf7): 20 nM
- IC50 (Estrogen receptor): 9.6 nM

SMILES: C[C@@H](COc1ccc(C2Oc3cc(O)ccc3C3=C2c2ccc(O)cc2OCC3)cc1)N1CC[C@@H](CF)C1 (some centres not stated)
- IC50 (MCF7; Homo sapiens, MCF7, 72 h): 0.2 nM

SMILES: Oc1ccc2c(c1)OCCC1=C2C(c2ccc(OCCN3CC(CF)C3)cc2)Oc2ccc(O)cc21 (stereo in doubt; 17a)
- IC50 (MCF7; mcf7): 0.3 nM

SMILES: CC1=C(c2cccc(O)c2)[C@H](c2ccc(OCCN3CC(CF)C3)cc2)Oc2ccc(O)cc21
- logD [1]: 2.9
- bioavailability [4]: 16%
- IC50 (MCF7; Homo sapiens, MCF7, 72 h): 0.2 nM
- Activity (Rattus norvegicus [7]): 105.7%
- clearance [2]: 85 mL/min/kg
